The source of these data is PubChem BioAssay (NCI).

Test systems include NCI-H226 lung; SK-MEL-28 melanoma; HCT-116 colon; 786-0 renal; K-562 leukemia; SNB-75 CNS; ACHN renal; MALME-3M melanoma; MDA-MB-435; T-47D breast.
What all share (assay): growth of human tumour cells (NCI), 48 h

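Following 48 hours of exposure in 96-well plates, responses at five concentrations were used to interpolate endpoints linearly. TGI is the concentration that stops growth completely.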

`CSc1nc(-c2ccccc2)nc(=[N+]2CCOCC2)s1`: the TGI in the test with NCI-H226 lung, with SK-MEL-28 melanoma, in the test on HCT-116 colon, in the test on 786-0 renal, in the test on K-562 leukemia and with SNB-75 CNS was greater than 100 µM throughout. For the same compound, the TGI in the test on ACHN renal and in the test on MALME-3M melanoma was greater than 100 µM each time.

For the compound `CCCCOc1ccc(S(=O)(=O)/N=C(\NO)Nc2ccc(Cl)cc2)cc1`, the TGI in the test with MDA-MB-435 was determined as 30.6 µM; with NCI-H226 lung it was 43.4 µM; with SK-MEL-28 melanoma, 36.1 µM; in the test on HCT-116 colon, 30.6 µM; in the test on 786-0 renal, 29.2 µM; in the test on K-562 leukemia, 41.2 µM. Further, the TGI worked out at 28.2 µM in the test on ACHN renal, 26.2 µM with T-47D breast and 32.7 µM with MALME-3M melanoma.

On to `O=S(=O)(O)c1cc(N=[N+]([O-])c2ccc(N=Nc3ccccc3)cc2S(=O)(=O)O)ccc1/C=C/c1ccc(N=[N+]([O-])c2ccc(N=Nc3ccccc3)cc2S(=O)(=O)O)cc1S(=O)(=O)O`, for which the TGI with NCI-H226 lung, in the test on SK-MEL-28 melanoma, with HCT-116 colon, with K-562 leukemia, in the test on SNB-75 CNS and in the test on MALME-3M melanoma was greater than 100 µM throughout.

Turning to `Cc1cc(O)c(C(C)C)cc1C(=S)Nc1ccc(Cl)cc1`, the TGI in the test on MDA-MB-435 came out at 23.1 µM; with SK-MEL-28 melanoma it was 28.6 µM; with HCT-116 colon, 26 µM; in the test with 786-0 renal it was 27.3 µM; in the test on K-562 leukemia, 23.4 µM; in the test on ACHN renal it was 25.7 µM. The values for the TGI in the test with T-47D breast and in the test with MALME-3M melanoma were 29.2 µM and 21.9 µM, respectively.

In the case of `COc1cccc(N(CN2C(=O)CCC2OC)C(C)=O)c1` (centres undefined), the TGI in the test on MDA-MB-435, with NCI-H226 lung, with SK-MEL-28 melanoma, in the test with HCT-116 colon, in the test on 786-0 renal and in the test on K-562 leukemia was greater than 100 µM in each case. Moreover, the TGI in the test with SNB-75 CNS, with ACHN renal and in the test on T-47D breast was greater than 100 µM throughout.

Consider `c1ccc(OCc2nnc(CCCCCCCCc3nnc(COc4ccccc4)o3)o2)cc1`, for which the TGI in the test on MDA-MB-435, with NCI-H226 lung, in the test with SK-MEL-28 melanoma, with HCT-116 colon, in the test with 786-0 renal and in the test on K-562 leukemia was greater than 100 µM in each case. In addition, the TGI in the test with SNB-75 CNS was 83.4 µM; in the test with ACHN renal, greater than 100 µM.

For `CCCCCCCCCCCCCCCCCCNc1nc(=O)n(C2CC(OP(=O)(O)OCC3OC(n4cc(F)c(=O)[nH]c4=O)CC3O)C(CO)O2)cc1F` (centres undefined), the TGI with MDA-MB-435, in the test with NCI-H226 lung, in the test on SK-MEL-28 melanoma, in the test with HCT-116 colon, with 786-0 renal and in the test with K-562 leukemia was greater than 100 µM in each case. Besides, the TGI with SNB-75 CNS, in the test with ACHN renal and in the test with T-47D breast was greater than 100 µM throughout.

As for `CC(C)(C)OC(=O)NNCC(O)COc1ccccc1` (centres undefined), the TGI in the test with MDA-MB-435, with NCI-H226 lung, with SK-MEL-28 melanoma, with HCT-116 colon, in the test with 786-0 renal and with K-562 leukemia was greater than 100 µM in each case. In addition, the TGI with ACHN renal, with T-47D breast and in the test on MALME-3M melanoma was greater than 100 µM each time.

For `CCOP(=O)(Cc1nc(C#N)c(N)o1)OCC`, the TGI with MDA-MB-435, with NCI-H226 lung, with SK-MEL-28 melanoma, with HCT-116 colon, in the test with 786-0 renal and in the test with K-562 leukemia was greater than 100 µM each time. Moreover, the TGI with ACHN renal and in the test on MALME-3M melanoma was greater than 100 µM each time.

For `COc1ccc(C2=Nc3c(nc(SC)[nH]c3=O)NC(c3ccccc3)C2)cc1` (centres undefined), the TGI was greater than 100 µM in the test on MDA-MB-435; 65.2 µM in the test with NCI-H226 lung; greater than 100 µM with HCT-116 colon; greater than 100 µM in the test on 786-0 renal; 66 µM in the test with K-562 leukemia; 48.8 µM in the test on SNB-75 CNS. Also, the figures for the TGI with ACHN renal and in the test on MALME-3M melanoma were 56.7 µM and greater than 100 µM, respectively.

For the compound `Cc1ccsc1/C=N/Nc1cc(C)c2ccccc2n1`, the TGI in the test with MDA-MB-435 came to 30 µM; in the test with NCI-H226 lung, 37.1 µM; in the test on SK-MEL-28 melanoma it was 30.2 µM; in the test with HCT-116 colon, 28.7 µM; with 786-0 renal, 31.8 µM; in the test on K-562 leukemia it was 78.4 µM. The TGI in the test on SNB-75 CNS was 31.4 µM; with ACHN renal, 34.9 µM; in the test with T-47D breast, greater than 100 µM.

Consider `O=[N+]([O-])c1ccc(Nc2cccc3c2[nH]c2c(-c4ccccc4)nccc23)c([N+](=O)[O-])c1`, for which the TGI in the test with NCI-H226 lung, in the test with SK-MEL-28 melanoma, in the test with HCT-116 colon, with K-562 leukemia, in the test on SNB-75 CNS and in the test with MALME-3M melanoma was greater than 100 µM throughout.

Turning to `ClC1=C(Cl)C2OC3C=CCC3OC2C(Cl)=C1Cl` (centres undefined), the TGI with MDA-MB-435, in the test on NCI-H226 lung, in the test on SK-MEL-28 melanoma, in the test on HCT-116 colon, in the test with 786-0 renal and in the test with K-562 leukemia was greater than 100 µM in each case. Besides, the TGI with ACHN renal and in the test with T-47D breast was greater than 100 µM throughout.

Take `CCc1n[nH]c(=O)[nH]1`: the TGI with MDA-MB-435, in the test with HCT-116 colon, in the test on 786-0 renal, in the test on K-562 leukemia, in the test with SNB-75 CNS and in the test with ACHN renal was greater than 100 µM each time. The TGI with T-47D breast and in the test on MALME-3M melanoma was greater than 100 µM in each case.

For the compound `COc1ccc(C2=NN(c3nsc4ccccc34)C(=O)CC2)cc1`, the TGI with SK-MEL-28 melanoma, with HCT-116 colon, in the test with K-562 leukemia, in the test on SNB-75 CNS and in the test with ACHN renal was greater than 100 µM in each case.

For the compound `Cc1ccc(C(=O)N/N=C(\N=Nc2ccccc2C(=O)O)c2ccc(N(C)C)cc2)cc1`, the TGI with MDA-MB-435, in the test on NCI-H226 lung, in the test on SK-MEL-28 melanoma, in the test on HCT-116 colon, with 786-0 renal and in the test with K-562 leukemia was greater than 100 µM throughout.
